What was measured:
NCI-H69 [1] = experiment: Cytotoxicity against human NCI-H69 cells at 30 uM assessed as cell proliferation rate measured after 72 hrs by MTT assay relative to control; type: functional
HCT-116 [2] = experiment: Cytotoxicity against human HCT-116 cells at 30 uM assessed as cell proliferation rate measured after 72 hrs by MTT assay relative to control; type: functional
PC-3 [3] = experiment: Cytotoxicity against human PC-3 cells at 30 uM assessed as cell proliferation rate measured after 72 hrs by MTT assay relative to control; type: functional
IGROV-1 [4] = experiment: Cytotoxicity against human IGROV-1 cells at 30 uM assessed as cell proliferation rate measured after 72 hrs by MTT assay relative to control; type: functional
MCF7 [5] = experiment: Cytotoxicity against human MCF7 cells measured after 72 hrs by MTT assay; type: functional, cell-based; conditions: MCF7, 72 h
CAKI-1 [6] = experiment: Cytotoxicity against human CAKI-1 cells measured after 72 hrs by MTT assay; type: functional, cell-based; conditions: CAKI-1, 72 h
786-0 [7] = experiment: Cytotoxicity against human 786-0 cells measured after 72 hrs by MTT assay; type: functional, cell-based; conditions: 786-0, 72 h
IGROV-1 [8] = experiment: Cytotoxicity against human IGROV-1 cells measured after 72 hrs by MTT assay; type: functional, cell-based; conditions: IGROV-1, 72 h
PC-3 [9] = experiment: Cytotoxicity against human PC-3 cells measured after 72 hrs by MTT assay; type: functional, cell-based; conditions: PC-3, 72 h
HCT-116 [10] = experiment: Cytotoxicity against human HCT-116 cells measured after 72 hrs by MTT assay; type: functional, cell-based; conditions: HCT-116, 72 h
NCI-H69 [11] = experiment: Cytotoxicity against human NCI-H69 cells measured after 72 hrs by MTT assay; type: functional, cell-based; conditions: NCI-H69, 72 h
NCI-H82 [12] = experiment: Cytotoxicity against human NCI-H82 cells measured after 72 hrs by MTT assay; type: functional, cell-based; conditions: NCI-H82, 72 h
Rec1 [13] = experiment: Cytotoxicity against human REC1 cells measured after 72 hrs by MTT assay; type: functional, cell-based; conditions: Rec1, 72 h
TC-32 [14] = experiment: Cytotoxicity against human TC-32 cells measured after 72 hrs by MTT assay; type: functional, cell-based; conditions: TC-32, 72 h
SK-N-MC [15] = experiment: Cytotoxicity against human SK-N-MC cells measured after 72 hrs by MTT assay; type: functional, cell-based
[16] = Cytotoxicity against human 6647 cells measured after 72 hrs by MTT assay; type: functional, cell-based; conditions: Homo sapiens, 6647, 72 h
[17] = Cytotoxicity against human TC71 cells measured after 72 hrs by MTT assay; type: functional, cell-based; conditions: TC-71, 72 h
A673 [18] = experiment: Cytotoxicity against human A673 cells measured after 72 hrs by MTT assay; type: functional, cell-based; conditions: A673, 72 h
MCF7 [19] = experiment: Cytotoxicity against human MCF7 cells at 30 uM assessed as cell proliferation rate measured after 72 hrs by MTT assay relative to control; type: functional
CAKI-1 [20] = experiment: Cytotoxicity against human CAKI-1 cells at 30 uM assessed as cell proliferation rate measured after 72 hrs by MTT assay relative to control; type: functional
786-0 [21] = experiment: Cytotoxicity against human 786-0 cells at 30 uM assessed as cell proliferation rate measured after 72 hrs by MTT assay relative to control; type: functional
NCI-H82 [22] = experiment: Cytotoxicity against human NCI-H82 cells at 30 uM assessed as cell proliferation rate measured after 72 hrs by MTT assay relative to control; type: functional
Rec1 [23] = experiment: Cytotoxicity against human REC1 cells at 30 uM assessed as cell proliferation rate measured after 72 hrs by MTT assay relative to control; type: functional
TC-32 [24] = experiment: Cytotoxicity against human TC-32 cells at 30 uM assessed as cell proliferation rate measured after 72 hrs by MTT assay relative to control; type: functional
SK-N-MC [25] = experiment: Cytotoxicity against human SK-N-MC cells at 30 uM assessed as cell proliferation rate measured after 72 hrs by MTT assay relative to control; type: functional
[26] = (§1) Cytotoxicity against human 6647 cells at 30 uM assessed as cell proliferation rate measured after 72 hrs by MTT assay relative to control; type: functional
[27] = (§2) Cytotoxicity against human TC71 cells at 30 uM assessed as cell proliferation rate measured after 72 hrs by MTT assay relative to control; type: functional; conditions: TC-71
A673 [28] = experiment: Cytotoxicity against human A673 cells at 30 uM assessed as cell proliferation rate measured after 72 hrs by MTT assay relative to control; type: functional
6647 = experiment: as §1; type: functional
TC-71 [29] = experiment: as §2; type: functional
HEK293 = experiment: Cytotoxicity against HEK293 cells at 10 uM measured after 24 to 48 hrs by Cell-titer glo assay relative to control; type: cell-based; conditions: human, hek293, 10 µM, time 24-48 hrs
[30] = Cytotoxicity against hTERT cells at 10 uM measured after 24 to 48 hrs by Cell-titer glo assay relative to control; type: cell-based; conditions: human, time 24-48 hrs
[31] = target: 3',5'-cyclic-AMP phosphodiesterase 4C (Homo sapiens) (UniProt Q08493); experiment: Inhibition of PDE4C1 (unknown origin) at 10 uM incubated for 60 mins followed by addition of binding agent and measured after 20 mins by Fluorescence Polarization assay relative to control; conditions: time 80.0 min
Sequence of 3',5'-cyclic-AMP phosphodiesterase 4C (Homo sapiens) (Q08493 whole entry): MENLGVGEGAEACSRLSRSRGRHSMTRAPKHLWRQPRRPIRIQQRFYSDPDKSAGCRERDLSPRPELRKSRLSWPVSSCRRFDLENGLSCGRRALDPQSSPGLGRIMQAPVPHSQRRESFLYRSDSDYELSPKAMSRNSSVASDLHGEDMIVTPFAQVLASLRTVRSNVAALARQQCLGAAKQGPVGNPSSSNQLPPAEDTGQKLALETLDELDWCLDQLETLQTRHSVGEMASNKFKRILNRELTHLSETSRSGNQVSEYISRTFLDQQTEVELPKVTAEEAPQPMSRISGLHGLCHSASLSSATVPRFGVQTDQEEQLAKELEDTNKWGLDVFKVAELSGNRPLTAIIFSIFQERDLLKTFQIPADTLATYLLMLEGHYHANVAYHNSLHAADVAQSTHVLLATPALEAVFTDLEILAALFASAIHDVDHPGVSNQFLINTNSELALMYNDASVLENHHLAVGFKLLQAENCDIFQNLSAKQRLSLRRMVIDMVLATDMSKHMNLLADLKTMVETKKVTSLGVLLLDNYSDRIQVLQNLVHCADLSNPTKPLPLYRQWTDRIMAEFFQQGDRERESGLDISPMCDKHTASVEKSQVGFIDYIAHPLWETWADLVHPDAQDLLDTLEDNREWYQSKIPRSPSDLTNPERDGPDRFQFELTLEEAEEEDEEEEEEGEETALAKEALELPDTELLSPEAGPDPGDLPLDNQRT

[32] = target: T1, NAD-dependent protein deacetylase sirtuin-7 (Homo sapiens) (UniProt Q9NRC8); experiment: Inhibition of human recombinant SIRT7 at 10 uM incubated for 20 mins followed by mixing and measure after 30 mins by Luminescence assay relative to control; conditions: time 50.0 min
T1 sequence (whole entry): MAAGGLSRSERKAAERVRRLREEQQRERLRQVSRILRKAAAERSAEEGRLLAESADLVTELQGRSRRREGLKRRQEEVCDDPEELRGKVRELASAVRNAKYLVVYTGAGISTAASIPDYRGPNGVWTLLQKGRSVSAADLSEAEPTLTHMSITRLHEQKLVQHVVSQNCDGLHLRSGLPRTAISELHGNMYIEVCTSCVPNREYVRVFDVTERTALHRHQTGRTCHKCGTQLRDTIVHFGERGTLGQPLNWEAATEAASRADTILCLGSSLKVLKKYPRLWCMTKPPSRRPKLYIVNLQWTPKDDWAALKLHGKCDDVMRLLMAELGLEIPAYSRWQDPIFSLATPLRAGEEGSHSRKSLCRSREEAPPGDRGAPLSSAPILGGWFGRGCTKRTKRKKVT

[33] = target: Aurora kinase B (Homo sapiens) (UniProt Q96GD4); experiment: Inhibition of Aurora B kinase (unknown origin) at 10 uM in presence of ATP incubated for 30 min followed by addition of kinase glo-reagent measured after 20 mins by Luminescence based plate reader assay relative to control; conditions: time 50.0 min
Sequence of Aurora kinase B (Homo sapiens) (Q96GD4 whole entry): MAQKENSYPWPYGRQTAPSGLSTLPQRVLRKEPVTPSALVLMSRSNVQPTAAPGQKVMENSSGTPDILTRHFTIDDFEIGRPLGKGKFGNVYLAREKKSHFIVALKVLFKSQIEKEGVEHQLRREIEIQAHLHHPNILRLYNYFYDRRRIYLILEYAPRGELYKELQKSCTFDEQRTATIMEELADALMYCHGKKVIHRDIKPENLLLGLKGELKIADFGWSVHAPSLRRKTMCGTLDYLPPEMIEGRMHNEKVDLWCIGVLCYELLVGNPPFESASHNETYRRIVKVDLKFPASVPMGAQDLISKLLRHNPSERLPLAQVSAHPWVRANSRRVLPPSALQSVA

[34] = target: {'v': 'hERG (KCNH2)', 'o': 'p', 'q': 'Inhibition of human ERG at 10 uM'} (Homo sapiens, UniProt Q12809); experiment: Inhibition of human ERG at 10 uM relative to control
Sequence of {'v': 'hERG (KCNH2)', 'o': 'p', 'q': 'Inhibition of human ERG at 10 uM'} (Q12809 whole entry): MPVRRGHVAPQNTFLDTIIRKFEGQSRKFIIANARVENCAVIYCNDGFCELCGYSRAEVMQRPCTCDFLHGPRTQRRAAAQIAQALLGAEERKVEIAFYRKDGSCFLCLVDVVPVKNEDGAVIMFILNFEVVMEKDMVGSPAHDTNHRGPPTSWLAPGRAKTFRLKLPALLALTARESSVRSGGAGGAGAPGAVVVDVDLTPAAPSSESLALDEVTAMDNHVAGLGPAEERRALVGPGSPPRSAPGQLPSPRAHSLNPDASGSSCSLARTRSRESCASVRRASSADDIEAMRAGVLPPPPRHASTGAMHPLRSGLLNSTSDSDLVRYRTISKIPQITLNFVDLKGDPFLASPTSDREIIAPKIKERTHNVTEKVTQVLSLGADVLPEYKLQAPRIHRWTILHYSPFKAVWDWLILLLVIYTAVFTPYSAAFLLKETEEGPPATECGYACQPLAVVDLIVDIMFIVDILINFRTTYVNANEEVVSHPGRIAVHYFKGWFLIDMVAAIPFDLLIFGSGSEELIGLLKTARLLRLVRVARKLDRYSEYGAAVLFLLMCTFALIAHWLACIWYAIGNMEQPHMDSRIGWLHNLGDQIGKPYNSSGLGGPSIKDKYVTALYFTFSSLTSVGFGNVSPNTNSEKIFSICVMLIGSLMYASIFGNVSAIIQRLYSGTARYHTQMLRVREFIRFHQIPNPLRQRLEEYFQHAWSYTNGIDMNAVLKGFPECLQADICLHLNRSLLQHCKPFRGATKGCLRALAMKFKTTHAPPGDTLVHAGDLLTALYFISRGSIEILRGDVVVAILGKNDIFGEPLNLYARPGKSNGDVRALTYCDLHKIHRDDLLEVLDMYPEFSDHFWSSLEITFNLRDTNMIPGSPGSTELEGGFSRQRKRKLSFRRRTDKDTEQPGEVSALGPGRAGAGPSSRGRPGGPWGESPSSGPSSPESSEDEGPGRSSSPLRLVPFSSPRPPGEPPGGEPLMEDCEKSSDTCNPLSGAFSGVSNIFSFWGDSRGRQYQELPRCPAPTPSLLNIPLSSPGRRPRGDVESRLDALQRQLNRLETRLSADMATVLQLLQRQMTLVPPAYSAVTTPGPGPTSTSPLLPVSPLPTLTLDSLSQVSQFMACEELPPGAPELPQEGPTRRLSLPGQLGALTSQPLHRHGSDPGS

HCT-116 [35] = experiment: Anticlonogenic activity against human HCT-116 cells assessed as reduction of cell survival at 0.5 to 20 uM measured after 10 days by SRB staining clonogenic survival assay; type: functional, cell-based; conditions: dose 0.5-20 µM, time 10.0 day
TC-71 [36] = experiment: Anticlonogenic activity against human TC71 cells assessed as reduction of cell survival at 0.5 to 20 uM measured after 10 days by SRB staining clonogenic survival assay; type: functional, cell-based; conditions: dose 0.5-20 µM, time 10.0 day
[37] = target: Histone deacetylase 4 (Homo sapiens) (UniProt P56524); experiment: Inhibition on human recombinant HDAC4 at 10 uM measured after 20 min by luminescence glo assay
Sequence of Histone deacetylase 4 (Homo sapiens) (P56524 whole entry): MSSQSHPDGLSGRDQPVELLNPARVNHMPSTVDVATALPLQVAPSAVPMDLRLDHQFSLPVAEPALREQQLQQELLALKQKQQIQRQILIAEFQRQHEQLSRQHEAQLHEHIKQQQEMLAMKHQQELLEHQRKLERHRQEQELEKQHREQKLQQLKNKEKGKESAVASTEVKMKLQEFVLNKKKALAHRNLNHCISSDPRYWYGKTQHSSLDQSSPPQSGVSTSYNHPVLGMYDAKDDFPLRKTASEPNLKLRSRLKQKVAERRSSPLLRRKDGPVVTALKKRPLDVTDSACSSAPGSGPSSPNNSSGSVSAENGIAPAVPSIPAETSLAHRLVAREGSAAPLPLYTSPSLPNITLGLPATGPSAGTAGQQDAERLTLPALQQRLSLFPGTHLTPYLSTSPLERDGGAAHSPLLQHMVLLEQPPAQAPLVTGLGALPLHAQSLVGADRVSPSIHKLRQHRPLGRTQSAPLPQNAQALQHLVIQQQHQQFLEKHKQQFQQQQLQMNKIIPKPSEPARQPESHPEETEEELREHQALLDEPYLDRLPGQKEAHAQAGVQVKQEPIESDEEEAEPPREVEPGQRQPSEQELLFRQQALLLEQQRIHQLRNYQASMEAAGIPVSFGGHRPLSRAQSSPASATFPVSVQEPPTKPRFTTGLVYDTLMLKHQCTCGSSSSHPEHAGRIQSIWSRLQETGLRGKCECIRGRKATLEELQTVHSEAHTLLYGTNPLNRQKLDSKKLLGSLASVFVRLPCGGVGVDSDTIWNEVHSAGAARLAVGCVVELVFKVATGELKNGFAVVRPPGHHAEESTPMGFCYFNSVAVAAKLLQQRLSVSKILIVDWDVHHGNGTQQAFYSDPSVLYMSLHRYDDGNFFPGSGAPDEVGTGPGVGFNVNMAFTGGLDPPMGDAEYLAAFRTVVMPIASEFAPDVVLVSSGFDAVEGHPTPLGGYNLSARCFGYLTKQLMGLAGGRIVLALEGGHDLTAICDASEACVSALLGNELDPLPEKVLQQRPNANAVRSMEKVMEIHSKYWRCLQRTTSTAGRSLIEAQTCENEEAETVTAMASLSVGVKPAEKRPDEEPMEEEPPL

[38] = target: T2, Protein deacetylase HDAC6 (Homo sapiens) (UniProt Q9UBN7); experiment: Inhibition on human recombinant HDAC6 at 10 uM measured after 20 min by luminescence glo assay
T2 sequence (whole entry): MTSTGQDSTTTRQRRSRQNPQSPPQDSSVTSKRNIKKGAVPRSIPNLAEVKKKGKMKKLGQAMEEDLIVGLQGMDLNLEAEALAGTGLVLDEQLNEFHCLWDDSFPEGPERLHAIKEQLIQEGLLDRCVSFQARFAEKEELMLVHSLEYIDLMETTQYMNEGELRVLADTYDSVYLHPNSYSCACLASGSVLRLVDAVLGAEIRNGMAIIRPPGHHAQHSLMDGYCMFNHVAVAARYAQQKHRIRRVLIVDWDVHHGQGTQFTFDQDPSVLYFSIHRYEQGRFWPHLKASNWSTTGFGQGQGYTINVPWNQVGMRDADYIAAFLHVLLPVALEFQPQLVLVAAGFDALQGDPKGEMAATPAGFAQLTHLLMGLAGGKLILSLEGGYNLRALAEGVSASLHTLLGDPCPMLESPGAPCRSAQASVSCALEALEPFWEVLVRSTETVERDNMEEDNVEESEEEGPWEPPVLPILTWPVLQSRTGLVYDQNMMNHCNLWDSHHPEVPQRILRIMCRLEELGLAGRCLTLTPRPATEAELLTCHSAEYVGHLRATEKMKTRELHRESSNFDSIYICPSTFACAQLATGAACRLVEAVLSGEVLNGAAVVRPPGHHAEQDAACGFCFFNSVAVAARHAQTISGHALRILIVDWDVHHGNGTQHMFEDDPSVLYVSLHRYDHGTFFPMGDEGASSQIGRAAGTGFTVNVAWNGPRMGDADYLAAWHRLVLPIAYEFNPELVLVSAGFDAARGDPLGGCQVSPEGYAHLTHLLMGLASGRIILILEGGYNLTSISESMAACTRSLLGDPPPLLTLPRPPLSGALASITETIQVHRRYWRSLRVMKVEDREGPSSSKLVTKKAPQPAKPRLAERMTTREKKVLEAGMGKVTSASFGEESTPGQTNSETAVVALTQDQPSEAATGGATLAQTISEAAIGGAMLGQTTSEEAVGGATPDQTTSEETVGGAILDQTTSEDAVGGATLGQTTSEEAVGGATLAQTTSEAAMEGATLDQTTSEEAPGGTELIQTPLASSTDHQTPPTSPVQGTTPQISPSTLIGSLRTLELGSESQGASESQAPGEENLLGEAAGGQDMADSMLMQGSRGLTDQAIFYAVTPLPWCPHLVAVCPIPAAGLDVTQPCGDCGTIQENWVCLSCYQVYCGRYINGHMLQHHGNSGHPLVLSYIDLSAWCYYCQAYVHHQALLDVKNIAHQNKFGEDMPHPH

[39] = target: T3, Histone deacetylase 8 (Homo sapiens) (UniProt Q9BY41); experiment: Inhibition on human recombinant HDAC8 at 10 uM measured after 20 min by luminescence glo assay
T3 sequence (whole entry): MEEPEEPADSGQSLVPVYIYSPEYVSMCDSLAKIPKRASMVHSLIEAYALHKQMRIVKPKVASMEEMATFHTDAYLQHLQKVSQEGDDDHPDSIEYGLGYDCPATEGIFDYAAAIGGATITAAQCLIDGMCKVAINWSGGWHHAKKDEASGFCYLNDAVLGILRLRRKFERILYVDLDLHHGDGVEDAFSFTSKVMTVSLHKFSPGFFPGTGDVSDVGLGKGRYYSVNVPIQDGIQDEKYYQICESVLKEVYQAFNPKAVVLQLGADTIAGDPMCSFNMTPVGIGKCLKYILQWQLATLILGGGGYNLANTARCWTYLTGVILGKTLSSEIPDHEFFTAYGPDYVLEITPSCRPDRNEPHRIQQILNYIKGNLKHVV

[40] = target: Histone deacetylase 9 (Homo sapiens) (UniProt Q9UKV0); experiment: Inhibition on human recombinant HDAC9 at 10 uM measured after 20 min by luminescence glo assay
Sequence of Histone deacetylase 9 (Homo sapiens) (Q9UKV0 whole entry): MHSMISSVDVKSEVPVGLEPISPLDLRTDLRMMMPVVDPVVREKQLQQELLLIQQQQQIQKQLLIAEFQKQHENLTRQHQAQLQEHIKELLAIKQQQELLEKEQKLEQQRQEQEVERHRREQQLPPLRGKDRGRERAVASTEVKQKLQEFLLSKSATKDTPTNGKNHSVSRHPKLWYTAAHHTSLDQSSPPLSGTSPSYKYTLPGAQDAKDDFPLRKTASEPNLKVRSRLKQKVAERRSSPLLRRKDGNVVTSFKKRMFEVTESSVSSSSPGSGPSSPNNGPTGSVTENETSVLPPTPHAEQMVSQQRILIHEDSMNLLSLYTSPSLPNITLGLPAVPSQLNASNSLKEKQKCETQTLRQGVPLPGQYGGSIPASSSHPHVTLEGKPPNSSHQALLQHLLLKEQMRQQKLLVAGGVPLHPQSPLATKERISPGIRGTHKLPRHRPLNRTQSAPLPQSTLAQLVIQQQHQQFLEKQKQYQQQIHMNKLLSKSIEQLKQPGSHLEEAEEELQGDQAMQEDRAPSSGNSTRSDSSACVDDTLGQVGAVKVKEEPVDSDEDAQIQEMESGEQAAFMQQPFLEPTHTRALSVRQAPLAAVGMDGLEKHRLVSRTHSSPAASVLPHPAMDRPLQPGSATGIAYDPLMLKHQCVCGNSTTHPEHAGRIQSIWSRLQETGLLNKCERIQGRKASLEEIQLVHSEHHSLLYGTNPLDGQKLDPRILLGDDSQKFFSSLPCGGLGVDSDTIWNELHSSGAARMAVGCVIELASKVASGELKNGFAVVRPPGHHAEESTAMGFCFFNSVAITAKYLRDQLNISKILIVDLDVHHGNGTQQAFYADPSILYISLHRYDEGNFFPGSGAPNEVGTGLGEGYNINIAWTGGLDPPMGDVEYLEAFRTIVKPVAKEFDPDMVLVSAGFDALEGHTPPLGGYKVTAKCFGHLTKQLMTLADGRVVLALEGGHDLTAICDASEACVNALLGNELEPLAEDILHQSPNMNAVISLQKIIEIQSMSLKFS

Row | Compound | Emax at 30 µM (HCT-116 [2]) [%] | IC50 (MCF7 [5]) [µM] | IC50 (CAKI-1 [6]) [µM] | IC50 (786-0 [7]) [µM] | IC50 (IGROV-1 [8]) [µM] | IC50 (PC-3 [9]) [µM] | IC50 (HCT-116 [10]) [µM] | IC50 (NCI-H69 [11]) [µM] | IC50 (NCI-H82 [12]) [µM] | IC50 (Rec1 [13]) [µM] | IC50 (TC-32 [14]) [µM] | IC50 (SK-N-MC [15]) [µM] | IC50 [16] [µM] | IC50 [17] [µM] | IC50 (A673 [18]) [µM] | Emax at 30 µM (TC-32 [24]) [%] | Emax at 30 µM (SK-N-MC [25]) [%] | other results
1 | NCC(=O)Nc1ccc(-n2nc(C(F)(F)F)cc2-c2ccc3c(ccc4ccccc43)c2)cc1 [AR-12] | 95 | 2.8 | 5 | 2.9 | 3.7 | 6.5 | 2.7 | 1.8 | 4 | 3.8 | 2 | 6 | 0.3 | 0.8 | 2.1 | 75 | 81 | Emax at 30 µM (NCI-H69 [1]): 80%; Emax at 30 µM (PC-3 [3]): 80%; Emax at 30 µM (IGROV-1 [4]): 91%; Emax at 30 µM (MCF7 [19]): 89%; Emax at 30 µM (CAKI-1 [20]): 95%; Emax at 30 µM (786-0 [21]): 80%; Emax at 30 µM (NCI-H82 [22]): 90%; Emax at 30 µM (Rec1 [23]): 90%; Emax at 30 µM [26]: 89%; Emax at 30 µM [27]: 95%; Emax at 30 µM (A673 [28]): 95%
2 | O=C(O)[C@]1(Cc2cccc(Nc3nccs3)n2)CC[C@@H](Oc2cccc(Cl)c2F)CC1 [MK-5108] | 40 | > 30 | > 30 | > 30 | > 30 | > 30 | 16.3 | > 30 | > 30 | > 30 | 5.6 | > 30 | 0.6 | 1.6 | > 30 | -59 |  | Emax 6647: 82%; Emax (TC-71 [29]): 70%
3 | Cc1ccc(C(=O)N[C@@H](C(=O)Nc2ccc3c(c2)/C(=C/c2cnc[nH]2)C(=O)N3)c2ccccc2)c(=O)n1Cc1ccc(F)c(F)c1 |  | > 30 | > 30 | > 30 | > 30 | > 30 | > 30 | > 30 | > 30 | > 30 | > 30 | 3 | 4.7 | > 30 | > 30 |  | 83 | Activity (HEK293): < 25%; Activity [30]: < 25%; inhibition [31]: < 30%; inhibition [32]: < 30%; inhibition [33]: < 20%; inhibition at 10 µM [34]: 56%; Activity (HCT-116 [35]): Dose-Dependent Effect; Activity (TC-71 [36]): Dose-Dependent Effect; inhibition [37]: < 30%; inhibition [38]: < 30%; inhibition [39]: < 30%; inhibition [40]: < 30%

— ChEMBL document CHEMBL5036349, “Development of potent dual PDK1/AurA kinase inhibitors for cancer therapy: Lead-optimization, structural insights, and ADME-Tox profile” (Eur J Med Chem, 2021)
